Data on 41 compounds can be found in the supplement of paper PMC12317010.

This data set can be described thus: collision cross section in nitrogen (drift tube, single-field); higher = larger gas-phase ion size.
[1] abbreviates: ion type: [M+], ion source: APCI, ion mode: Positive.
Where [2] appears, read: ion type: [M-H], ion source: ESI, ion mode: Negative.
[3] abbreviates: ion type: [M+H], ion source: APCI, ion mode: Positive.
The mark [4] stands for this setting: ion type: [M+H], ion source: ESI, ion mode: Positive.
Setting [5] is: ion type: [M+Na], ion source: ESI, ion mode: Positive.
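Note: chemical standards at 10 µM analysed by drift tube IMS-QTOF MS in about 3.95 torr nitrogen, mean of duplicate injections differing ≤1%, mass error below 10 ppm.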

`COc1cc(C(C)(C)C)c(O)c(C(C)(C)C)c1` [2,6-Di-tert-butyl-4-methoxyphenol]: the “collision cross section in nitrogen” value runs as follows: under setting [1], 157.2 Å²; under setting [2], 160.4 Å².

With `CC(C)(C)c1cc([N+](=O)[O-])cc(C(C)(C)C)c1O` [2,6-Di-tert-butyl-4-nitrophenol], the “collision cross section in nitrogen” value under setting [2] came out at 162.2 Å².

On to `Nc1cccc(N)n1` [2,6-Diaminopyridine], for which the “collision cross section in nitrogen” value is, setting by setting: under setting [3], 118.9 Å²; under setting [4], 119.8 Å².

On to `Nc1c(Br)cc([N+](=O)[O-])cc1Br` [2,6-Dibromo-4-nitroaniline], for which the “collision cross section in nitrogen” value under setting [2] amounted to 134.9 Å².

Regarding `Nc1cc(Cl)c(N)c(Cl)c1` [2,6-Dichloro-1,4-benzenediamine], the “collision cross section in nitrogen” value under setting [4] was 135.5 Å² and the “collision cross section in nitrogen” value under setting [1] came out at 128.1 Å².

Turning to `CC(C)c1cccc(C(C)C)c1N` [2,6-Diisopropylaniline], under setting [3], the “collision cross section in nitrogen” value was 146.6 Å².

In the case of `CCCCCCCCCCCCCN1CC(C)OC(C)C1` (stereo not given) [2,6-Dimethyl-4-tridecylmorpholine], the “collision cross section in nitrogen” value under setting [4] worked out at 183.5 Å².

For `Cc1cccc2sc3nncn3c12` [2,7,8,9-Tricyclazole], the “collision cross section in nitrogen” value runs as follows: under setting [3], 136.3 Å²; under setting [4], 134 Å²; under setting [5], 153.5 Å².

For `CC(=O)Nc1ccc2c(c1)Cc1cc(NC(C)=O)ccc1-2` [2,7-Acetylaminofluorene], the “collision cross section in nitrogen” value runs as follows: under setting [3], 176.3 Å²; under setting [4], 175.7 Å²; under setting [5], 180.9 Å²; under setting [1], 167.4 Å²; under setting [2], 174.7 Å².

With `CCCC(C)c1ccccc1O` (stereo not given) [2-(1-Methylbutyl)phenol], the “collision cross section in nitrogen” value under setting [2] is given as 138.6 Å².

For the compound `CC(C)(C)c1cc(-n2nc3ccccc3n2)c(O)c(C(C)(C)C)c1` [2-(2'-Hydroxy-3',5'-di-tert-butylphenyl)benzotriazole], the “collision cross section in nitrogen” value is, setting by setting: under setting [1], 186 Å²; under setting [2], 192.5 Å².

Regarding `CC(C)c1cccc(C(C)C)c1N1C(=O)c2ccc(O)cc2C1=O` [2-(2,6-Diisopropylphenyl)-5-hydroxy-1H-isoindole-1,3-dione], the “collision cross section in nitrogen” value under setting [2] stood at 182 Å².

`CCCCOCCOCCO` [2-(2-Butoxyethoxy)ethanol]: the “collision cross section in nitrogen” value under setting [5] came out at 141.5 Å².

Take `C=CC(=O)OCCOCCOCC` [2-(2-Ethoxyethoxy)ethyl acrylate]: the “collision cross section in nitrogen” value under setting [5] came out at 142.6 Å².

For `OCCc1ccccn1` [2-(2-Pyridyl)ethanol], the “collision cross section in nitrogen” value stood at 120.7 Å² under setting [3] and 121.2 Å² under setting [4].

As to `Cc1ccc(O)c(-n2nc3ccccc3n2)c1` [2-(2H-Benzotriazol-2-yl)-4-methylphenol], under setting [2], the “collision cross section in nitrogen” value stood at 155.4 Å².

For `CCC(C)c1cc(C(C)(C)C)cc(-n2nc3ccccc3n2)c1O` (stereo not given) [2-(2H-Benzotriazol-2-yl)-6-(butan-2-yl)-4-tert-butylphenol], the “collision cross section in nitrogen” value is, setting by setting: under setting [3], 187.2 Å²; under setting [2], 192.5 Å².

In the case of `c1ccc(CCCc2ccccn2)cc1` [2-(3-Phenylpropyl)pyridine], the “collision cross section in nitrogen” value turned out to be 140.8 Å² under setting [3] and 141.1 Å² under setting [4].

Consider `Cc1ccc2nc(-c3ccc(N)cc3)sc2c1S(=O)(=O)O` [2-(4-Aminophenyl)-6-methylbenzothiazole sulfonic acid], for which the “collision cross section in nitrogen” value under setting [4] came to 171.7 Å², the “collision cross section in nitrogen” value under setting [5] worked out at 185.9 Å² and the “collision cross section in nitrogen” value under setting [2] is on record as 174.2 Å².

Consider `Cc1cc(Cl)ccc1OCC(=O)O` [2-(4-Chloro-2-methylphenoxy)acetic acid], for which the “collision cross section in nitrogen” value under setting [2] came to 146.1 Å².

With `Cc1ccc(-c2nc3ccccc3o2)cc1` [2-(4-Methylphenyl)-1,3-benzoxazole], the “collision cross section in nitrogen” value under setting [3] stood at 145.3 Å² and the “collision cross section in nitrogen” value under setting [4] is recorded as 145.5 Å².

Regarding `CC(C)(C)c1ccc(OC2CCCCC2O)cc1` (stereo not given) [2-(4-tert-Butylphenoxy)cyclohexanol], the “collision cross section in nitrogen” value under setting [5] was 179.8 Å².

`CCCCCCCCC=CCCCCCCCC1=NCCN1CCO` [2-(8-Heptadecenyl)-2-imidazoline-1-ethanol]: the “collision cross section in nitrogen” value reads like this: under setting [3], 199.3 Å²; under setting [4], 199.8 Å²; under setting [2], 196.6 Å².

With `CN(C)Cc1ccccc1O` [2-((Dimethylamino)methyl)phenol], the “collision cross section in nitrogen” value under setting [4] is on record as 162.2 Å².

Turning to `C=C(C)C(=O)OCCOC(=O)CC(C)=O` [2-(Methacryloyloxy)ethyl acetoacetate], the “collision cross section in nitrogen” value under setting [5] is 147.6 Å².

As to `CCN(CCO)c1cccc(C)c1` [2-(N-Ethyl-m-toluidino)ethanol], the “collision cross section in nitrogen” value was found to be 140 Å² under setting [3] and 140.6 Å² under setting [4].

With `Nc1ccccc1S(=O)(=O)c1ccccc1` [2-(Phenylsulfonyl)aniline], the “collision cross section in nitrogen” value under setting [2] stood at 151.8 Å².

Turning to `OCCc1ccncc1` [2-(Pyridin-4-yl)ethanol], the “collision cross section in nitrogen” value runs as follows: under setting [3], 124.6 Å²; under setting [4], 124.3 Å².

As for `C=CC(=O)NC(C)(C)CS(=O)(=O)O` [2-Acrylamido-2-methyl-1-propanesulfonic acid], the “collision cross section in nitrogen” value under setting [2] is listed as 141.5 Å².

In the case of `C=CCOCC(CC)(CO)CO` [2-Allyloxymethyl-2-ethylpropanediol], the “collision cross section in nitrogen” value under setting [5] came to 141.3 Å².

In the case of `C=CCc1ccccc1O` [2-Allylphenol], the “collision cross section in nitrogen” value under setting [2] is recorded as 128.1 Å².

Consider `Cc1cc(C)nc(N)n1` [2-Amino-4,6-dimethylpyrimidine], for which the “collision cross section in nitrogen” value runs as follows: under setting [3], 123.7 Å²; under setting [4], 123 Å².

On to `COc1nc(C)nc(N)n1` [2-Amino-4-methoxy-6-methyl-1,3,5-triazine], for which the “collision cross section in nitrogen” value is 122.7 Å² under setting [3] and 123.4 Å² under setting [4].

For `Nc1nnc(-c2ccc([N+](=O)[O-])o2)o1` [2-Amino-5-(5-nitro-2-furyl)-1,3,4-oxadiazole], the “collision cross section in nitrogen” value under setting [2] turned out to be 135.3 Å².

In the case of `Nc1ccc(Cl)cc1C(=O)c1ccccc1` [2-Amino-5-chlorobenzophenone], the “collision cross section in nitrogen” value under setting [2] is 150.4 Å².

With `Cc1ccc(N)c(S(=O)(=O)O)c1` [2-Amino-5-methylbenzenesulfonic acid], under setting [2], the “collision cross section in nitrogen” value is recorded as 137.9 Å².

As to `N#Cc1cc([N+](=O)[O-])ccc1N` [2-Amino-5-nitrobenzonitrile], the “collision cross section in nitrogen” value under setting [2] was determined as 125.1 Å².

In the case of `Nc1ccc([N+](=O)[O-])cc1O` [2-Amino-5-nitrophenol], the “collision cross section in nitrogen” value under setting [2] was found to be 125.3 Å².

`Nc1cc([N+](=O)[O-])cc(Cl)c1O` [2-Amino-6-chloro-4-nitrophenol]: under setting [2], the “collision cross section in nitrogen” value is 130.1 Å².

Turning to `Nc1nc2ccc([N+](=O)[O-])cc2s1` [2-Amino-6-nitrobenzothiazole], the “collision cross section in nitrogen” value worked out at 144.1 Å² under setting [3], 143.6 Å² under setting [4] and 131.3 Å² under setting [2].

Turning to `CC(C)NC(=O)c1ccccc1N` [2-Amino-N-(1-methylethyl)benzamide], the “collision cross section in nitrogen” value under setting [2] turned out to be 140.8 Å².
